Measured values published in patent US20180213796A1, “PLANT DISEASE CONTROL COMPOSITION AND PLANT DISEASE CONTROL METHOD” (SUMITOMO CHEMICAL COMPANY, LIMITED, priority 2015, published 2018).

Key:
[1] = test system: damping-off fungus (Rhizoctonia solani); assay: Test Example 15: soybean seed treatment, pot test in soil mixed with damping-off fungus, control value; assay type: in vivo; conditions: soybean seeds, 20 days after
Description: In a rotary seed treatment machine (trade name: HEGE11, manufactured by WINTERSTEIGER), soybean seeds (variety: “Hatayutaka”) were treated by smearing treatment using the flowable formulation of the present bacterial strain obtained in Formulation Example 19 and a chemical liquid wherein ipconazole was dissolved in acetone/Tween 20 (weight ratio=95:5) and diluted with water, so that the soybean seeds retain the present bacterial strain and the compound in the amount shown in Table 5.
Cultivation was carried out in a greenhouse under irrigation (“treated compartment”). The plants were investigated 20 days after for the number of diseased plants, and the disease incidence was calculated by the following “Equation 1”. Also, similar procedures were conducted using untreated soybean seeds, instead of the treated soybean seeds, as described above for the treated compartment (“untreated compartment”). The plants were investigated 20 days after for the number of diseased plants, and the disease incidence was calculated by the following “Equation 1”. The control value of the treated compartment was calculated by the following equation “Equation 2”, based on the disease incidences of the treated compartment and the untreated compartment.
Disease incidence (%)=100×(number of diseased plant/total number of seeded seeds) Equation 1 […]

[2] = test system: damping-off fungus (Rhizoctonia solani); assay: Test Example 14: corn seed treatment, pot test in soil mixed with damping-off fungus, control value; assay type: in vivo; conditions: corn seeds, 20 days after
Description: In a rotary seed treatment machine (trade name: HEGE11, manufactured by […]), corn seeds (variety: yellow dent corn) were treated by smearing treatment using a flowable formulation of the present bacterial strain as obtained in Formulation Example 19, metconazole flowable formulation (40.0% flowable formulation, trade name: Metolock Fungicide, Valent U.S.A. Corporation), a chemical liquid prepared by dissolving tebuconazole in acetone/Tween 20 (weight ratio=95:5) and diluting with water, a chemical liquid prepared by dissolving prothioconazole in acetone/Tween 20 (weight ratio=95:5) and diluting with water, a chemical liquid prepared by dissolving difenoconazole in acetone/Tween 20 (weight ratio=95:5) and diluting with water, a chemical liquid prepared by dissolving triticonazole in acetone/Tween 20 (weight ratio=95:5) and diluting with water, a chemical liquid prepared by dissolving triadimenol in acetone/Tween 20 (weight ratio=95:5) and diluting with water, a chemical liquid prepared by dissolving bromconazole in acetone/Tween 20 (weight ratio=95:5) and diluting with water, so that the soybean seeds retain the present bacterial strain and the compound in the amount shown in Table 4.
Cultivation was carried out in a greenhouse under irrigation (“treated compartment”). The plants were investigated 20 days after for the number of diseased plants, and the disease incidence was calculated by the following “Equation 1”. […] The plants were investigated 20 days after for the number of diseased plants, and the disease incidence was calculated by the following “Equation 1”. The control value of the treated compartment was calculated by the following equation “Equation 2”, based on the disease incidences of the treated compartment and the untreated compartment.
Disease incidence (%)=100×(number of diseased plant/total number of seeded seeds) Equation 1
Control value (%)=100×[(disease incidence in untreated compartment−disease incidence in treated compartment)/disease incidence in untreated compartment] Equation 2 […]

[3] = compound alone 0.005 g/Kg seeds

| Structure (SMILES) | Controlling Effect (control value) [2, 3] [%] | Controlling Effect (control value) ([2]; compound alone 0.01 g/Kg seeds) [%] | other results |
| --- | --- | --- | --- |
| CC(C)C1CCC(Cc2ccc(Cl)cc2)C1(O)Cn1cncn1 (stereo not shown) [Ipconazole] | – | – | Controlling Effect (control value) [1, 3]: 27%; Controlling Effect (control value) ([1]; compound alone 0.01 g/Kg seeds): 33% |
| Clc1ccc(C2(Cn3cncn3)CC(Br)CO2)c(Cl)c1 (stereo not shown) [Bromconazole] | 17 | 33 | – |
| CC(C)(C)C(O)C(Oc1ccc(Cl)cc1)n1cncn1 (stereo not shown) [Triadimenol] | 33 | 42 | – |
| CC1(C)CCC(=Cc2ccc(Cl)cc2)C1(O)Cn1cncn1 (stereo not shown) [Triticonazole] | 17 | 25 | – |
| CC1(C)CCC(Cc2ccc(Cl)cc2)C1(O)Cn1cncn1 (stereo not shown) [Metconazole] | – | – | Controlling Effect (control value) ([2]; compound alone 0.0005 g/Kg seeds): 25%; Controlling Effect (control value) ([2]; compound alone 0.001 g/Kg seeds): 33% |
| OC(Cc1ccccc1Cl)(Cn1nc[nH]c1=S)C1(Cl)CC1 (stereo not shown) [Prothioconazole] | 42 | 50 | – |
| CC1COC(Cn2cncn2)(c2ccc(Oc3ccc(Cl)cc3)cc2Cl)O1 (stereo not shown) [Difenoconazole] | 58 | – | Controlling Effect (control value) ([2]; compound alone 0.0025 g/Kg seeds): 33% |
| CC(C)(C)C(O)(CCc1ccc(Cl)cc1)Cn1cncn1 (stereo not shown) [Tebuconazole] | – | 25 | Controlling Effect (control value) ([2]; compound alone 0.02 g/Kg seeds): 33% |
